From ChEMBL document CHEMBL4152359, “Synthesis and biological evaluation of novel heteroring-annulated pyrrolino-tetrahydroberberine analogues as antioxidant agents” (Bioorg Med Chem, 2018)
Calls of active or inactive are those of the source. The calls are words filed in the database; no cut-off is given here.

Columns and labels:
[1] = system: NCTC-2544; assay: Antioxidant activity in human NCTC-2544 cells assessed as reduction in H2O2-induced ROS level at 30 uM preincubated up to 3 hrs followed by H2O2 addition measured for 30 mins by DCFH-DA staining based fluorescence assay; format: functional, cell-based
[2] = system: DNA; assay: Antioxidant activity assessed as protection against ferrous ions and dioxygen-induced free radical-mediated DNA strand break in pEMBL8 supercoiled DNA preincubated with DNA followed by (NH4)2Fe(SO4)2.6H2O addition measured after 6 mins by ethidium bromide staining based agarose gel electrophoresis method; format: functional
[3] = system: NCTC-2544; assay: Antioxidant activity in human NCTC-2544 cells assessed as reduction in intracellular oxidation level at 30 uM after 1 hr by DCFH-DA staining based fluorescence assay; format: functional, cell-based
[4] = Antioxidant activity assessed as trolox equivalents of AAPH-induced radical scavenging activity by ORAC-FL assay; format: functional
[5] = system: NCTC-2544; assay: Antioxidant activity in human NCTC-2544 cells assessed as reduction in H2O2-induced ROS level at 30 uM preincubated with cells followed by H2O2 addition measured after 24 hrs by DCFH-DA staining based fluorescence assay; format: functional; set-up: scale not given: the % may be the effect or the level left
[6] = system: NCTC-2544; assay: Cytotoxicity against human NCTC-2544 cells assessed as reduction in cell viability at 30 uM up to 72 hrs by WST8 assay; format: cell-based; details: nctc-2544, 72 h
[7] = system: NCTC-2544; assay: Antioxidant activity in human NCTC-2544 cells assessed as reduction in intracellular oxidation level at 30 uM after 3 hrs by DCFH-DA staining based fluorescence assay; format: functional, cell-based
[8] = system: NCTC-2544; assay: Antioxidant activity in human NCTC-2544 cells assessed as reduction in intracellular oxidation level at 30 uM after 24 hrs by DCFH-DA staining based fluorescence assay; format: functional, cell-based
[9] = system: NCTC-2544; assay: Cytotoxicity against human NCTC-2544 cells assessed as reduction in cell viability at 30 uM at 72 hrs by WST8 assay relative to control; format: cell-based; details: nctc-2544, 72 h

SMILES	Activity [1]	EC50 [2] [µM]	Activity [3]	Activity [4] [equiv]	Activity [5]	Activity [6]	Activity [7]	Activity [8]	Activity [9] [%]
CCOC(=O)C1=C(C)N(NC(=O)OC(C)(C)C)C23c4cc5c(cc4CCN2Cc2c(ccc(OC)c2OC)C13)OCO5 (centres undefined)	Active	74	Active	1560	37%	Non-Toxic	Active	Active	
COC(=O)NN1C(C)=C(C(=O)OC)C2c3ccc(OC)c(OC)c3CN3CCc4cc5c(cc4C231)OCO5 (centres undefined)	Active	683		855	inactive	Non-Toxic			
COc1ccc2c(c1OC)CN1CCc3cc4c(cc3C1C2)OCO4 (centres undefined) [TETRAHYDROBERBERINE]	Active	93		1580	inactive			inactive	
COc1ccc2c(c1OC)CN1CCc3cc4c(cc3C13C2C(C(=O)Nc1ccccc1)=C(C)N3NC(=O)Nc1ccccc1)OCO4 (centres undefined)	Active	140		185	inactive	Non-Toxic			
COC(=O)C1=C(C)N(NC(=O)Nc2ccccc2)C23c4cc5c(cc4CCN2Cc2c(ccc(OC)c2OC)C13)OCO5 (centres undefined)	Active	63		1160	inactive	Non-Toxic			
COc1ccc2c(c1OC)CN1CCc3cc4c(cc3C13C2C(P(=O)(OC)OC)=C(C)N3NC(=O)OC(C)(C)C)OCO4 (centres undefined)	Active	196		1130	inactive				35
CCOC(=O)NN1C(C)=C(C(=O)OCC)C2c3ccc(OC)c(OC)c3CN3CCc4cc5c(cc4C231)OCO5 (centres undefined)	Active	407	Active	955	inactive	Non-Toxic			
COC(=O)C1=C(C)N(NC(=O)OC(C)(C)C)C23c4cc5c(cc4CCN2Cc2c(ccc(OC)c2OC)C13)OCO5 (centres undefined)	Active	119		1470	inactive	Non-Toxic			
